Nine compounds from PubChem BioAssay (NCI) can be followed below.

Some test systems named below: A549 NSCLC; ACHN renal; CAKI-1 renal; EKVX NSCLC; HS 578T breast; KM12 colon; SNB-19 CNS; SW-620 colon.
Common to all, as to experiment: NCI-60 cell line screen, 48 h

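Compound exposure: 48 hours, 5 concentrations, 96-well plates. The concentration for 50% growth inhibition is given as GI50. The concentration for full growth arrest is given as TGI.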 Where only a bound is given, the exact number is not on record here.

`O=S(=O)(O)ONC1=NCCN1`: the GI50 in the assay on A549 NSCLC was > 100 µM; in the assay on ACHN renal it was > 100 µM; in the assay on CAKI-1 renal, > 100 µM; in the assay on EKVX NSCLC it was > 100 µM; with HS 578T breast, 26.9 µM; with KM12 colon it was > 100 µM. The GI50 was > 100 µM in the assay with SNB-19 CNS and 72.5 µM in the assay on SW-620 colon. Moreover, the TGI in the assay on A549 NSCLC, with ACHN renal, in the assay with CAKI-1 renal, in the assay on EKVX NSCLC, in the assay on HS 578T breast and in the assay with KM12 colon was > 100 µM throughout. The TGI in the assay on SNB-19 CNS and in the assay with SW-620 colon was > 100 µM throughout.

For `O=[As]c1ccc(C(=O)c2ccc(Oc3ccccc3)cc2)cc1` (stereo not drawn), the GI50 was 0.0465 µM in the assay with A549 NSCLC; 0.0358 µM in the assay on ACHN renal; 0.0392 µM in the assay on CAKI-1 renal; 0.0688 µM with EKVX NSCLC; 0.129 µM in the assay on HS 578T breast; 0.0532 µM with KM12 colon. Also, the GI50 with SNB-19 CNS is 0.0651 µM; in the assay with SW-620 colon, 0.0248 µM. The TGI is 0.172 µM in the assay on A549 NSCLC; 0.114 µM in the assay on ACHN renal; 0.12 µM in the assay on CAKI-1 renal; 0.205 µM in the assay on EKVX NSCLC; 0.177 µM in the assay on KM12 colon; 0.187 µM with SNB-19 CNS. In the assay with SW-620 colon, the TGI turned out to be 0.111 µM.

`OC(COc1cccc2ccccc12)CN1CCN(c2ccccc2Cl)CC1` (stereo not drawn): the GI50 is 18.2 µM in the assay on A549 NSCLC; 13.9 µM with ACHN renal; 7.23 µM with CAKI-1 renal; 12.9 µM in the assay on EKVX NSCLC; 15.8 µM in the assay with HS 578T breast; 11.8 µM in the assay with KM12 colon. Further, the GI50 with SNB-19 CNS was 14.5 µM; in the assay on SW-620 colon, 10.9 µM. Moreover, the TGI with A549 NSCLC amounted to 35.4 µM; with ACHN renal, 27.5 µM; in the assay on CAKI-1 renal, 22.7 µM; in the assay on EKVX NSCLC, 31.7 µM; in the assay on HS 578T breast it was 58 µM; with KM12 colon it was 25.9 µM. In addition, the TGI was 30.2 µM with SNB-19 CNS and 27.9 µM in the assay on SW-620 colon.

As to `COc1cc(-c2nn(-c3ccc(NC(=O)c4cc(Cl)cc(Cl)c4)cc3)cc2-c2ccncc2)ccc1Cl`, the GI50 was > 100 µM in the assay with A549 NSCLC; > 100 µM in the assay on ACHN renal; > 100 µM in the assay with CAKI-1 renal; > 100 µM with EKVX NSCLC; 3.29 µM in the assay with HS 578T breast; 3.27 µM in the assay on KM12 colon. Also, the GI50 in the assay on SNB-19 CNS and in the assay with SW-620 colon was > 100 µM in each case. For the same compound, the TGI with A549 NSCLC, in the assay with ACHN renal, in the assay on CAKI-1 renal, in the assay on EKVX NSCLC, with HS 578T breast and with KM12 colon was > 100 µM each time. The TGI in the assay with SNB-19 CNS and in the assay on SW-620 colon was > 100 µM in each case.

In the case of `Oc1c(CN2CCOCC2)cc(COCc2ccccc2)c2cccnc12`, the GI50 was 4.22 µM in the assay on A549 NSCLC; 0.571 µM with ACHN renal; 0.555 µM in the assay on CAKI-1 renal; 2.88 µM in the assay on EKVX NSCLC; 19.4 µM with HS 578T breast; 3.73 µM with KM12 colon. For the same compound, the GI50 is 4.28 µM with SNB-19 CNS and 3.61 µM with SW-620 colon. Moreover, the TGI in the assay with A549 NSCLC was 64 µM; in the assay with ACHN renal, > 100 µM; with CAKI-1 renal, > 100 µM; with EKVX NSCLC, > 100 µM; with HS 578T breast, > 100 µM; in the assay with KM12 colon, > 100 µM. Also, the TGI with SNB-19 CNS and in the assay with SW-620 colon was > 100 µM throughout.

For `Cc1nnc(-c2ccc(-c3nc4ccccc4o3)cc2)o1`, the GI50 in the assay with A549 NSCLC was 26.1 µM; with ACHN renal, > 100 µM; in the assay on CAKI-1 renal, > 100 µM; with EKVX NSCLC it was 85 µM; with HS 578T breast, 95.1 µM; in the assay on KM12 colon, 43.3 µM. For the same compound, the GI50 is 20.7 µM in the assay with SNB-19 CNS and > 100 µM with SW-620 colon. The TGI in the assay on A549 NSCLC, with ACHN renal, in the assay on CAKI-1 renal, in the assay with EKVX NSCLC, in the assay on HS 578T breast and in the assay on KM12 colon was > 100 µM each time. Besides, the TGI with SNB-19 CNS was 43.1 µM; in the assay on SW-620 colon it was > 100 µM.

Turning to `O=C(CC(=O)c1ccccc1)c1ccccc1`, the GI50 with A549 NSCLC is 26.9 µM; in the assay on ACHN renal, 11.5 µM; in the assay with CAKI-1 renal, 20.1 µM; in the assay on EKVX NSCLC it was 11.2 µM; in the assay with HS 578T breast, 25.4 µM; in the assay on KM12 colon, 3.98 µM. The GI50 in the assay on SNB-19 CNS was 27 µM; in the assay with SW-620 colon, 13.2 µM. The TGI was 69.5 µM with A549 NSCLC; 34.5 µM in the assay with ACHN renal; 66 µM with CAKI-1 renal; 38 µM in the assay on EKVX NSCLC; > 100 µM in the assay on HS 578T breast; > 100 µM with KM12 colon. Besides, the TGI in the assay with SNB-19 CNS and with SW-620 colon was > 100 µM each time.

For `O=C(Nc1cc(-c2cccnc2)nc(NCCCN2CCOCC2)n1)c1cc(Br)cc(C(F)(F)F)c1`, the GI50 was 10.1 µM in the assay with A549 NSCLC; 3.04 µM in the assay with ACHN renal; 2.53 µM with CAKI-1 renal; 2.72 µM in the assay with EKVX NSCLC; 2.71 µM with HS 578T breast; 3.62 µM with KM12 colon. Moreover, the GI50 is 2.5 µM in the assay with SNB-19 CNS and 2.25 µM with SW-620 colon. The TGI turned out to be 22.2 µM in the assay with A549 NSCLC; 11.3 µM in the assay with ACHN renal; 10.7 µM with CAKI-1 renal; 14.4 µM with EKVX NSCLC; 8.51 µM in the assay with HS 578T breast; 13.6 µM in the assay on KM12 colon. The results for the TGI with SNB-19 CNS and in the assay with SW-620 colon were 5.75 µM and 5.48 µM, respectively.

On to `COC(=O)[C@]12CC[C@@H](C)[C@H](C)[C@@H]1C1=CC[C@@H]3[C@@]4(C)CC(=O)[C@H](OC(=O)c5ccco5)[C@@]5(C)COC(=C45)C[C@@]3(C)[C@]1(C)CC2`, for which the GI50 with A549 NSCLC was 6.31 µM; in the assay with ACHN renal, 2.94 µM; in the assay with CAKI-1 renal it was 0.729 µM; in the assay with EKVX NSCLC, 2.09 µM; with HS 578T breast, > 100 µM; with KM12 colon, 2.22 µM. Besides, the GI50 with SNB-19 CNS is 3.57 µM; with SW-620 colon it was 0.902 µM. Also, the TGI in the assay with A549 NSCLC, with ACHN renal, with CAKI-1 renal, in the assay with EKVX NSCLC, in the assay on HS 578T breast and in the assay with KM12 colon was > 100 µM in each case. Besides, the TGI in the assay with SNB-19 CNS and in the assay on SW-620 colon was > 100 µM each time.
